Experimental data: patent US8722674B2, “1,3,5-triazine-2,4,6-triamine compound or pharmaceutical acceptable salt thereof, and pharmaceutical composition comprising the same” (Hanall Biopharma Co., Ltd., priority 2007, dated 2014)

Experiments:
C2C12 cells = assay: Measurement of glucose absorption (3H-deoxy-glucose); assay type: cell-based; conditions: for activity at 100 µM: Mus musculus, differentiated C2C12 muscle cells, with 1 μM insulin 24 h, higher is better, read-out: glucose absorption, % control; for effect of reducing insulin resistance, times better than the control group: absorption effect divided by average percent of control group (metformin 2 mM), multiplied by 20
Text: (§1) Metformin that is widely used in type 2 diabetic patients inhibits the formation of glucose, the synthesis of cholesterol and triglyceride in liver cells and promote the absorption of glucose from blood vessels in the muscle cells. […] In the case of the ability to form cholesterol, triglyceride and glucose, the lower the numerical value, the better the effect. Numerical values for a control group become reference values.
As a muscle cell model, C2C12 cells were induced to differentiate into muscle cells in 2% bovine fetal serum for 6 days. The C2C12 cells which differentiated into muscle cells were treated with each of the compounds in serum-free low glucose media, and then cultured with 1 μM of insulin for 24 hours. After cultivation, the cells were treated with 1 μCi 3H-deoxy-glucose and 10 μM deoxy-glucose at 37° C. for 15 minutes. After treatment, the media were removed, and the cells were washed twice with PBS. The washed cells were treated with 0.1 N NaOH and neutralized with 1N HCl. The amount of glucose absorbed into the cells was measured with a liquid scintillation counter. The effect of the compounds was determined by selecting a compound showing an absorption effect of at least 200%, dividing the absorption effect by the average percent of the control group, and then multiplying the divided value by […]. A higher measurement value means a stronger ability to reduce insulin resistance.

HepG2 cells [1] = assay: Measurement of gluconeogenesis (14C-lactate); assay type: cell-based; conditions: Homo sapiens, 100 uM, 24 h treatment, lower is better, read-out: gluconeogenesis (glucose synthesis ability), % control
Procedure: as §1
As a hepatic cell model, HepG2 cells were cultured in 10% serum-containing high glucose media, and then treated with each of the compounds for 24 hours. Then, the cells were treated with 0.5 uCi 14C-lactate and 10 mM L-lactate, and cultured for 4 hours. After cultivation, the media of the cells were removed, and the cells were washed with PBS, treated with 0.1N NaOH and left to stand at room temperature for 1 hour. Then, the cells were neutralized with 1N HCl, and the amount of glucose formed in the cells was measured with a liquid scintillation counter. […] A lower measurement value means a stronger blood glucose lowering activity.

HepG2 cells [2] = assay: Measurement of triglyceride (Amplex red fluorescence); assay type: cell-based; conditions: Homo sapiens, 100 uM, 24 h treatment, lower is better, read-out: triglyceride synthesis ability, % control
Procedure: as §1
(§2) As a hepatic cell model, HepG2 cells were cultured in 1% serum-containing media for 24 hours, and then treated with each of the compounds for 24 hours. Then, the cells were disrupted with lysis buffer (0.1M potassium phosphate, pH 7.4, 0.05 M NaCl, 5 mM cholic acid, 0.1% Triton X-100). To the disrupted cells, the same volume of a reaction solution (0.76 U/ml glycerol kinase, 151333 U/ml peroxidase, 22.2 U/ml glycerol oxidizing agent, and 300 μM Amplex red as a fluorescent factor) was added and allowed to react at 37° C. for 30 minutes. After completion of the reaction, the cells were measured with a fluorometer at a wavelength of 560/590 nm (ex/em), thus quantifying the amount of triglyceride formed in the cells. A lower measurement value means an increased lipid production inhibitory ability.

HepG2 cells [3] = assay: Measurement of cholesterol synthesis ability (Amplex red fluorescence); assay type: cell-based; conditions: Homo sapiens; 100 uM, HepG2 cells, 24 h treatment; lower is better; read-out: cholesterol synthesis ability, % control
Text: as §1
as §2, with “model, HepG2 cells were used to measure cholesterol synthesis inhibitory ability, which is the important function of AMPK. The hepatic cell model” for “model,”, “(0.1 M” for “(0.1M”, “(2” for “(0.76”, “cholesterol oxidizing agent, 2” for “glycerol kinase, 151333”, “0.2” for “22.2”, “cholesterol esterase,” for “glycerol oxidizing agent,”

For CN(C)c1nc(N)nc(N2CCN(c3ccccc3)CC2)n1 [Example 39, N2,N2-dimethyl-6-(4-phenylpiperazin-1-yl)-1,3,5-triazine-2,4-diamine], the activity at 100 µM (C2C12 cells) was 115%, the melting point was 132 to 139 °C and the activity at 100 µM (HepG2 cells [1]) was 77.4%. For the same compound, the activity at 100 µM (HepG2 cells [2]) was 95.3% and the activity at 100 µM (HepG2 cells [3]) was 55.8%.
In the case of CN(C)c1nc(N)nc(N2CCN(c3ccc([N+](=O)[O-])cc3)CC2)n1 [Example 40, N2,N2-dimethyl-6-(4-(4-nitrophenyl)piperazin-1-yl)-1,3,5-triazine-2,4-diamine], the activity at 100 µM (C2C12 cells) was 245%, the “effect of reducing insulin resistance, times better than the control group” value (C2C12 cells) was “about 14 times” and the melting point was 173 to 182 °C. The activity at 100 µM (HepG2 cells [1]) was 39.8%, the activity at 100 µM (HepG2 cells [2]) was 110% and the activity at 100 µM (HepG2 cells [3]) was 62.2%.
In the case of CN(C)c1nc(N)nc(NC2CCCCC2)n1 [Example 41, N2-cyclohexyl-N4,N4-dimethyl-1,3,5-triazine-2,4,6-triamine], the activity at 100 µM (C2C12 cells) was 263%, the “effect of reducing insulin resistance, times better than the control group” value (C2C12 cells) was “about 16 times” and the melting point was 119 to 120 °C. For the same compound, the activity at 100 µM (HepG2 cells [1]) was 90.6%, the activity at 100 µM (HepG2 cells [2]) was 90.9% and the activity at 100 µM (HepG2 cells [3]) was 70.8%.
In the case of CN(C)c1nc(N)nc(Nc2ccccc2O)n1 [Example 43, 2-(4-amino-6-(dimethylamino)-1,3,5-triazine-2-ylamino)phenol], the activity at 100 µM (C2C12 cells) was 186%, the melting point was 307 to 312 °C and the activity at 100 µM (HepG2 cells [1]) was 83.5%. For the same compound, the activity at 100 µM (HepG2 cells [2]) was 77% and the activity at 100 µM (HepG2 cells [3]) was 41.1%.
